Experimental data as given in US20230329236A1, “HERBICIDAL PYRIMIDINE DERIVATIVES” (MoA Technology Limited, priority 2020, published 2023).

Tests used:
Conditions in all cases: 336 h, Table 3, post-emergence, 14±1 days post application
[1] = system: Amaranthus retroflexus (AMARE); assay: Post-emergence glasshouse test, visual injury, AMARE; type: in vivo
Protocol: (§1) Seeds of a variety of test species are grown in a sandy loam soil mixture, Lolium multiflorum (LOLMU), Amaranthus retroflexus (AMARE), Echinochloa crus-gaffi (ECHCG), Veronica persica (VERPE), Glycine max (GLXMA), Oryza sativa (ORYSA), Zea mays (ZEAMX), spring wheat (TRZAS), Ipomoea hederacea (IPOHE), Ipomoea purpurea (PHBPU), Stellaria media (STEME), Solanum nigrum (SOLNI), Digitaria sanguinalis (DIGSA), Setaria italica (SETIT), Alopecurus myosuroides (ALOMY) and Avena fatua (AVEFA).
(§2) After sowing, at growth stage BBCH 12-14 (post-emergence), the plants are sprayed with an aqueous spray solution derived from the formulation of the technical active ingredient in acetone/water (50:50) solution containing 0.5% Tween 20 (polyoxyethlyene sorbitan monolaureate, CAS RN 9005-64-5). The test compounds are applied at the required concentration of active ingredient in g/ha. The test plants are then grown in a glasshouse under controlled environmental conditions and watered regularly as required. After 14±1 days post application (for post-emergence test), the test is evaluated by assessing the percentage damage caused to the plants in comparison with the untreated plots. The biological activities for post-emergence testing are shown below (Table 3 and Table 4) as a % visual injury.

[2] = system: Lolium multiflorum (LOLMU); assay: Post-emergence glasshouse test, visual injury, LOLMU; type: in vivo
Protocol: as §1, §2

[3] = system: Echinochloa crus-gaffi (ECHCG); assay: Post-emergence glasshouse test, visual injury, ECHCG; type: in vivo, Echinochloa crus-galli
Protocol: as §1, §2

Veronica persica (VERPE) = assay: Post-emergence glasshouse test, visual injury, VERPE; type: in vivo
Protocol: as §1, §2

| Structure (SMILES) | pest or weed control at 500 g/ha [1] | pest or weed control at 500 g/ha [2] | pest or weed control at 500 g/ha [3] | pest or weed control at 500 g/ha (Veronica persica (VERPE)) | pest or weed control at 125 g/ha [1] | pest or weed control at 125 g/ha [2] | pest or weed control at 125 g/ha [3] | pest or weed control at 125 g/ha (Veronica persica (VERPE)) | also measured |
| --- | --- | --- | --- | --- | --- | --- | --- | --- | --- |
| Cc1cc(-c2cnc(N3CCNC(=O)C3)nc2-c2ccc(C)o2)on1 [Compound 37] | 50% | 0% | 0% | 0% |  |  |  |  |  |
| Cc1cc(-c2cnc(NCc3ccc(F)cc3)nc2C(C)C)on1 [Compound 93] |  |  |  |  | 100% | 60% | 80% | 100% |  |
| Cc1cc(-c2cnc(NCc3ccc(F)cc3)nc2C2CCC2)on1 [Compound 105] |  |  |  |  | 30% | 0% | 0% | 50% |  |
| Cc1cc(-c2cnc(NCC3CCOCC3)nc2C(C)C)on1 [Compound 109] |  |  |  |  | 40% | 0% | 0% | 70% |  |
| COCCNc1ncc(-c2cc(C)no2)c(-c2ccc(C)o2)n1 [Compound 65] | 60% | 0% | 30% | 0% |  |  |  |  |  |
| Cc1cc(-c2cnc(N(C)C3CCCC3)nc2C(C)C)on1 [Compound 9] |  |  |  |  | 95% | 60% | 60% | 80% |  |
| Cc1cccc(CNc2ncc(-c3cc(C)no3)c(C(C)C)n2)c1 [Compound 99] |  |  |  |  |  |  |  |  | pest or weed control at 62 g/ha [1]: 60%; pest or weed control at 62 g/ha [2]: 30%; pest or weed control at 62 g/ha [3]: 70%; pest or weed control at 62 g/ha (Veronica persica (VERPE)): 80% |
| Cc1cc(-c2cnc(N3CCC(C(N)=O)CC3)nc2-c2ccc(C)o2)on1 [Compound 19] |  |  |  |  |  |  |  |  | pest or weed control at 1000 g/ha ([1]; 1000 g/ha): 70%; pest or weed control at 1000 g/ha ([2]; 1000 g/ha): 0%; pest or weed control at 1000 g/ha ([3]; 1000 g/ha): 20%; pest or weed control at 1000 g/ha (Veronica persica (VERPE); 1000 g/ha): 0% |
| Cc1cc(-c2cnc(NCc3ccc4c(c3)OCO4)nc2C(C)(C)C)on1 [Compound 54] | 40% | 5% | 40% | 99% |  |  |  |  |  |
| Cc1cc(-c2cnc(NCc3ccccc3C)nc2C(C)C)on1 [Compound 98] |  |  |  |  |  |  |  |  | pest or weed control at 62 g/ha [1]: 60%; pest or weed control at 62 g/ha [2]: 0%; pest or weed control at 62 g/ha [3]: 70%; pest or weed control at 62 g/ha (Veronica persica (VERPE)): 80% |
| Cc1cc(-c2cnc(N3CCCCC3)nc2C2CC2)on1 [Compound 31] | 70% | 0% | 30% | 0% |  |  |  |  |  |
| Cc1cc(-c2cnc(N3CCC(O)CC3)nc2C2CC2)on1 [Compound 71] | 90% | 0% | 60% | 40% |  |  |  |  |  |
| Cc1cc(-c2cnc(N3CCCCCC3)nc2C(C)C)on1 [Compound 49] | 50% | 0% | 60% | 30% |  |  |  |  |  |
| Cc1cc(-c2cnc(NC3CCCCC3)nc2C(C)C)on1 [Compound 7] |  |  |  |  | 80% | 20% | 80% | 60% | pest or weed control at 250 g/ha [1]: 100%; pest or weed control at 250 g/ha [2]: 20%; pest or weed control at 250 g/ha [3]: 100%; pest or weed control at 250 g/ha (Veronica persica (VERPE)): 100% |
| Cc1cc(-c2cnc(NCCCN3CCC(C)CC3)nc2-c2ccco2)on1 [Compound 25] | 30% | 0% | 30% | 0% |  |  |  |  |  |
| Cc1cc(-c2cnc(NCCc3c(C)noc3C)nc2C(C)C)on1 [Compound 62] | 70% | 40% | 50% | 70% |  |  |  |  |  |
| Cc1cc(-c2cnc(NCc3ccccn3)nc2C(C)C)on1 [Compound 39] | 70% | 0% | 20% | 80% |  |  |  |  |  |
| Cc1cc(-c2cnc(NCc3ccc(F)cc3)nc2C(F)F)on1 [Compound 120] |  |  |  |  | 30% | 0% | 20% | 40% |  |
| COc1ccccc1CNc1ncc(-c2cc(C)no2)c(-c2ccc(C)o2)n1 [Compound 23] | 70% | 0% | 50% | 80% |  |  |  |  |  |

| Structure (SMILES) | pest or weed control at 500 g/ha [1] | pest or weed control at 500 g/ha [2] | pest or weed control at 500 g/ha [3] | pest or weed control at 500 g/ha (Veronica persica (VERPE)) | pest or weed control at 125 g/ha [1] | pest or weed control at 125 g/ha [2] | pest or weed control at 125 g/ha [3] | pest or weed control at 125 g/ha (Veronica persica (VERPE)) | also measured |
| --- | --- | --- | --- | --- | --- | --- | --- | --- | --- |
| Cc1cc(-c2cnc(NC(C)C)nc2C(C)(C)C)on1 [Compound 73] | 70% | 40% | 70% | 0% |  |  |  |  |  |
| Cc1cc(-c2cnc(N3CCCCC3)nc2C(C)(C)C)on1 [Compound 48] | 20% | 70% | 10% | 0% |  |  |  |  |  |
| Cc1cc(-c2cnc(NC3CCCC3)nc2C2CCC2)on1 [Compound 104] |  |  |  |  | 40% | 0% | 0% | 60% |  |
| Cc1cc(-c2cnc(NCC3CCC3)nc2C(C)C)on1 [Compound 87] |  |  |  |  | 50% | 30% | 80% | 70% |  |
| Cc1cc(-c2cnc(NCc3cccnc3)nc2-c2ccc(C)o2)on1 [Compound 22] | 60% | 0% | 50% | 60% |  |  |  |  |  |
| Cc1cc(-c2cnc(NCc3cccnc3)nc2C(C)C)on1 [Compound 28] | 90% | 0% | 70% | 98% |  |  |  |  |  |
| Cc1cc(-c2cnc(NC(C)C)nc2C(C)C)on1 [Compound 83] |  |  |  |  | 95% | 40% | 70% | 70% | pest or weed control at 250 g/ha [1]: 98%; pest or weed control at 250 g/ha [2]: 50%; pest or weed control at 250 g/ha [3]: 100%; pest or weed control at 250 g/ha (Veronica persica (VERPE)): 100% |
| C=COCCCNc1ncc(-c2cc(C)no2)c(C(C)C)n1 [Compound 35] | 0% | 0% | 60% | 98% |  |  |  |  |  |
| Cc1cc(-c2cnc(NCc3cccc(Cl)c3)nc2C(C)C)on1 [Compound 117] |  |  |  |  | 70% | 30% | 70% | 70% |  |
| Cc1cc(-c2cnc(N3CCSCC3)nc2-c2ccc(C)o2)on1 [Compound 90] |  |  |  |  | 30% | 0% | 30% | 40% |  |
| Cc1cc(-c2cnc(N3CCN(c4ncccn4)CC3)nc2C(C)C)on1 [Compound 70] | 80% | 0% | 20% | 0% |  |  |  |  |  |
| Cc1cc(-c2cnc(NCc3cccnc3)nc2C(F)(F)F)on1 [Compound 111] |  |  |  |  | 0% | 10% | 0% | 0% |  |
| Cc1cc(-c2cnc(NC3CC3)nc2C(C)C)on1 [Compound 38] | 100% | 50% | 60% | 100% |  |  |  |  |  |
| Cc1cc(-c2cnc(N3CCC(O)CC3)nc2C(C)C)on1 [Compound 76] | 80% | 0% | 30% | 0% |  |  |  |  |  |
| Cc1cc(-c2cnc(N3CCC(O)C(C)C3)nc2-c2ccc(C)o2)on1 (stereo not shown) [Compound 36] | 30% | 0% | 30% | 0% |  |  |  |  |  |
| Cc1cc(-c2cnc(NCc3ccncc3)nc2-c2ccc(C)o2)on1 [Compound 21] | 50% | 0% | 20% | 90% |  |  |  |  |  |
| Cc1cc(-c2cnc(N3CCCC3)nc2C(C)C)on1 [Compound 29] | 0% | 0% | 50% | 50% |  |  |  |  |  |
| Cc1cc(-c2cnc(N(C)C)nc2-c2ccc(C)o2)on1 [Compound 43] | 50% | 40% | 60% | 0% |  |  |  |  |  |
| Cc1cc(-c2cnc(NCc3cccs3)nc2C2CC2)on1 [Compound 80] | 60% | 30% | 80% | 60% |  |  |  |  |  |
